# Test results: patent US7417156B2, “Orally active, antimalarial, anticancer, artemisinin-derived trioxane dimers” (Johns Hopkins University, priority 2002, dated 2008)
# How the values were obtained:
# [1] = system: P388 leukemia; settings: NCI Report on NSC 369397; cited from earlier work
# [2] = system: male CD-1 mice; test: Acute toxicity study, single intraperitoneal injection; settings: for Mortality: single ip, male CD-1 mice
# Procedure: Each compound was dissolved in DMSO (Mallinkrodt Lot No. V18H15) to achieve a concentration of 200 mg/ml, and then 3 parts sesame oil (Spectrum Lot No. M10656) was added to make a working concentration of 50 mg/ml for dose administration. Stability, strength, and uniformity of the test articles in the dose formulations were not determined for this study.
# Forty-two CD1 male mice purchased from Charles River Laboratories (Wilmington, Mass.) were used in the study. Mice were quarantined for 3 days prior to initiation of the study.
# Mice were weighed and randomized into treatment groups on the day prior to the first dose administration. Due to limitations in the amount of available test materials, fewer mice in 1000 mg/kg groups were treated than specified in the protocol. The numbers of animals intended to be used and actually used with each compound at each dose level are shown in the table below; the only differences are in the high-dose groups.
# Surviving animals were sacrificed on Day 8 and blood was collected for clinical pathology evaluations.
# Mortality and morbidity were checked twice daily on weekdays and once daily on the weekend, see Table VI. Animals were weighed daily and prior to necropsy.
structure (smiles),measurement,setting,value
C[C@@H]1CC[C@H]2[C@@H](C)C(=O)O[C@@H]3O[C@]4(C)CC[C@@H]1[C@]32OO4 [Artemisinin],activity in words,[1],inactive
"CC1CCC2C(C)C(CC(COC(=O)c3cc[n+]([O-])cc3)CC3OC4OC5(C)CCC6C(C)CCC(C3C)C46OO5)OC3OC4(C)CCC1C32OO4 (stereo not drawn) [Compound 13, bis-trioxane primary alcohol isonicotinate N-oxide]",Mortality,[2]; 125 mg/kg,No death
same,Mortality,[2]; 250 mg/kg,No death
same,Mortality,[2]; 500 mg/kg,3/3 dead
same,Mortality,[2]; 750 mg/kg,2/3 dead
same,toxicity relative to sodium artesunate in words,[2]; intraperitoneally to mice as a single dose,less toxic
